From patent publication US9868737B2, “Pyridino[1,2-A]pyrimidone analogue used as MTOR/P13K inhibitor” (CISEN PHARMACEUTICAL CO., LTD., priority 2014, dated 2018)
Read-outs that look alike come from different tables or passages of the source.

Tested on: MCF-7 cells
Assay: In vitro test of cell activity (MCF-7 cells, insulin stimulation, ELISA-One fluorescence)
Type: cell-based
Settings: Homo sapiens, MCF7, MCF-7 cells; for inhibition at 0.25 µM: conc. 0.25 μM; for inhibition at 0.5 µM: conc. 0.5 μM; for inhibition at 1 µM: conc. 1 μM
Procedure: Example In Vitro Tests of Cell Activities Experimental Steps and Methods:
1) MCF-7 cells were inoculated at the density of 2.5×10^4 cells/well into 96-well plates (the culture medium used should be a complete culture medium containing 10% FBS).
2) On the next day, the medium in each well was drawn out. A certain concentration (preliminary screening) or a series of concentration (IC50 test) of compounds were dissolved in a culture medium without serum and added to the 96-well plates to culture cells for 2 hours.
3) Insulin was dissolved in a culture medium without serum, added to the cultured cells and incubated for 30 minutes, wherein the final concentration of insulin was […].
4) A lysis solution was prepared according to the following method during the waiting period for the reaction:
a) Enhancer solution was removed from the refrigerator to melt in advance.
b) Enhancer solution was diluted 10 times with the 5× Lysis Buffer to give a concentrated lysis solution.
c) The concentrated lysis solution was diluted 5 times with double distilled water to give the lysis solution.
5) The medium in each well was completely removed and each well was quickly rinsed with PBS once.
6) 150 μl of the freshly prepared lysis solution was added to each well and shaked at room temperature for 10 minutes.
7) After confirming that all cells were detached, the lysis solution together with the cell fragments was transferred into a 1.5 ml tube.
8) The tube was shaked on vortes mixer to make the lysis solution and cells mix completely and then the mixture was centrifugated at 4° C. under 12000 g for 10 minutes.
9) The number of strips of ELISA-one micro-well plate that is required was calculated. The needless strips were removed from the frame, put back into the storage bag and sealed. Before the strips of micro-well plate were used, 200 μl of double distilled water was used to rinse each well to remove preservative.
10) 50 μl of antibody mixture was added to each well. (The antibody mixture solution was prepared by mixing the medium antibody reagent and the enzyme labeled antibody reagent with an equal proportion. The preparation of antibody mixture didn't need vortex.)
11) 25 μl of cell lysates was added to each well of ELISA-One micro-well plate. The micro-well plate was covered with adhesive sealing film and incubated on a micro-well plate oscillation instrument at room temperature for 1 hour.
12) Each well was rinsed with 150 μl of 1× rinsing buffer 3 times. After the last rinsing, the rinsing buffer in the well was completely removed. If necessary, the 1× rinsing buffer could be allowed to stay in the micro-well plate for up to 30 minutes so that the substrate mixed solution could be prepared during such time period.
13) The substrate mixed solution should be prepared just before each use, 10 μl of the substrate mixed solution was added to each well and the micro-well plate was sealed with tin-foil and incubated on the micro-well plate oscillation instrument at room temperature for 10 minutes.
14) 10 μl of stop solution was added to each well and mixed slightly (5-10 seconds) on the micro-well plate oscillation instrument.
15) The corresponding ELISA-One filter group was assembled and used to read the fluorescence signal intensity.

Compound	IC50 (read-out: IC50 p-AKT)	inhibition at 0.5 µM (read-out: % inhibition AKT)	inhibition at 0.5 µM (read-out: % inhibition p70s6k)	IC50 (read-out: IC50 p-p70S6K)	further results
COc1ncc(-c2ccc3ncc(OCC4COC4)c(=O)n3c2)cc1NS(=O)(=O)c1ccc(F)cc1Cl [compound 214]	≤ 50 nM	–	–	–	–
COc1ncc(-c2ccc3ncc(-n4ccc(C)n4)c(=O)n3c2)cc1NS(=O)(=O)c1ccc(F)cc1Cl [compound 219]	–	–	–	–	inhibition at 0.25 µM (read-out: % inhibition AKT): 41.7%; inhibition at 0.25 µM (read-out: % inhibition p70s6k): 13.4%
COc1ncc(-c2ccc3ncc(N)c(=O)n3c2)cc1NS(=O)(=O)c1ccc(F)cc1Cl [compound 88]	≤ 50 nM	94.8%	91%	100 to 250 nM	–
CCOc1ncc(-c2ccc3nccc(=O)n3c2)cc1NS(=O)(=O)c1ccc(F)cc1F [compound 15]	–	–	–	–	inhibition at 1 µM (read-out: % inhibition AKT): 93.3%; inhibition at 1 µM (read-out: % inhibition p70s6k): 91.7%
COc1ncc(-c2ccc3ncc(F)c(=O)n3c2)cc1NS(=O)(=O)c1cc(F)ccc1F [compound 65]	≤ 50 nM	84.8%	89.7%	50 to 100 nM	–
COCCCOc1ncc(-c2ccc3ncc(Cl)c(=O)n3c2)cc1NS(=O)(=O)c1ccc(F)cc1F [compound 232]	> 250 nM	–	–	–	–
COc1ncc(-c2ccc3ncc(Cl)c(=O)n3c2)cc1NS(=O)(=O)c1ccccc1Cl [compound 136]	≤ 50 nM	95.5%	87.2%	50 to 100 nM	–
COc1ncc(-c2ccc3ncc(Cl)c(=O)n3c2)cc1NS(=O)(=O)c1c(C)noc1C [compound 166]	100 to 250 nM	–	–	100 to 250 nM	inhibition at 0.25 µM (read-out: % inhibition AKT): 66.5%; inhibition at 0.25 µM (read-out: % inhibition p70s6k): 89.2%
Cc1ncc(-c2ccc3nccc(=O)n3c2)cc1NS(=O)(=O)c1ccc(F)cc1 [compound 8]	–	–	–	–	inhibition at 1 µM (read-out: % inhibition AKT): 84.6%; inhibition at 1 µM (read-out: % inhibition p70s6k): 60.5%
COc1ncc(-c2cn3c(=O)ccnc3cc2C)cc1NS(=O)(=O)c1cc(F)ccc1F [compound 131]	–	-27%	4.5%	–	–
COc1ncc(-c2ccc3ncc(F)c(=O)n3c2)cc1NS(=O)(=O)c1ccc(C(F)(F)F)cc1 [compound 69]	≤ 50 nM	85.4%	87.6%	50 to 100 nM	–
COc1nnc(-c2ccc3ncc(Cl)c(=O)n3c2)cc1NS(=O)(=O)c1ccc(F)cc1F [compound 133]	> 250 nM	–	–	–	–
COc1ncc(-c2ccc3ncc(OCC(=O)O)c(=O)n3c2)cc1NS(=O)(=O)c1ccc(F)cc1F [compound 177]	> 250 nM	–	–	–	–
COc1ncc(-c2ccc3ncc(N)c(=O)n3c2)cc1NS(=O)(=O)c1ccccc1F [compound 90]	≤ 50 nM	92.7%	87.9%	100 to 250 nM	–
COc1ncc(-c2ccc3nccc(=O)n3c2C)cc1NS(=O)(=O)c1ccccc1F [compound 55]	–	65.7%	42.3%	–	–
COCCOc1cnc2ccc(-c3ccc(OC)c(NS(=O)(=O)c4ccc(F)cc4F)c3)cn2c1=O [compound 205]	50 to 100 nM	–	–	–	–
COc1ncc(-c2cn3c(=O)ccnc3cn2)cc1NS(=O)(=O)c1ccccc1F [compound 44]	–	6.3%	4.7%	–	–
COc1ncc(-c2ccc3ncc(NS(C)(=O)=O)c(=O)n3c2)cc1NS(=O)(=O)c1ccc(F)cc1F [compound 98]	> 250 nM	–	–	–	–
COc1ncc(-c2cn3c(=O)ccnc3cc2F)cc1NS(=O)(=O)c1cc(F)ccc1F [compound 116]	–	52.3%	6.7%	–	–
COCCOc1cnc2ccc(-c3cnc(OC)c(NS(=O)(=O)c4sc(N(C)C)nc4C)c3)cn2c1=O [compound 193]	≤ 50 nM	–	–	–	–

Compound	IC50 (read-out: IC50 p-AKT)	inhibition at 0.5 µM (read-out: % inhibition AKT)	inhibition at 0.5 µM (read-out: % inhibition p70s6k)	IC50 (read-out: IC50 p-p70S6K)	further results
COCCOCCOc1cnc2ccc(-c3cnc(OC)c(NS(=O)(=O)c4sc(C)nc4C)c3)cn2c1=O [compound 191]	≤ 50 nM	–	–	–	–
COc1ncc(-c2ccc3ncc(Cl)c(=O)n3c2)cc1NS(=O)(=O)c1c(F)cccc1F [compound 148]	50 to 100 nM	–	–	50 to 100 nM	inhibition at 0.25 µM (read-out: % inhibition AKT): 88.9%; inhibition at 0.25 µM (read-out: % inhibition p70s6k): 86.3%
Cc1ncc(-c2ccc3nccc(=O)n3c2)cc1NS(=O)(=O)c1ccc(F)cc1F [compound 7]	–	–	–	–	inhibition at 1 µM (read-out: % inhibition AKT): 81.3%; inhibition at 1 µM (read-out: % inhibition p70s6k): 50.1%
COCOc1cnc2ccc(-c3cnc(OC)c(NS(=O)(=O)c4sc(C)nc4C)c3)cn2c1=O [compound 181]	≤ 50 nM	–	–	–	–
O=c1ccnc2ccc(-c3cnc(Cl)c(NS(=O)(=O)N4CCOCC4)c3)cn12 [compound 31]	–	–	–	–	inhibition at 1 µM (read-out: % inhibition AKT): 67.8%; inhibition at 1 µM (read-out: % inhibition p70s6k): 45.5%
COc1ncc(-c2ccc3ncc(N(C)C)c(=O)n3c2)cc1NS(=O)(=O)c1ccc(F)cc1F [compound 96]	> 250 nM	–	–	–	–
COc1ncc(-c2ccc3nccc(=O)n3c2)cc1NS(=O)(=O)c1ccc(Cl)cc1 [compound 23]	≤ 50 nM	–	–	100 to 250 nM	inhibition at 1 µM (read-out: % inhibition AKT): 95.7%; inhibition at 1 µM (read-out: % inhibition p70s6k): 93.9%
COc1ncc(-c2ccc3ncc(C)c(=O)n3c2)cc1NS(=O)(=O)c1ccccc1Cl [compound 85]	≤ 50 nM	95.8%	88.3%	50 to 100 nM	–
COc1ncc(-c2cn3c(=O)ccnc3cn2)cc1NS(=O)(=O)c1ccc(C)nc1 [compound 45]	–	15.2%	-1%	–	–
COc1ncc(-c2ccc3ncc(Cl)c(=O)n3c2)cc1NS(=O)(=O)c1ccc(C)cc1Cl [compound 152]	≤ 50 nM	–	–	≤ 50 nM	inhibition at 0.25 µM (read-out: % inhibition AKT): 94%; inhibition at 0.25 µM (read-out: % inhibition p70s6k): 83.9%
COc1ncc(-c2cn3c(=O)ccnc3cc2F)cc1NS(=O)(=O)c1cccc(F)c1 [compound 115]	–	43.6%	6.5%	–	–
COc1ncc(-c2ccc3nc(C)cc(=O)n3c2)cc1NS(=O)(=O)c1ccc(F)cc1F [compound 221, 2,4-difluoro-N-(2-methoxy-5-(2-methyl-4-oxo-4H-pyrido[1,2-a]pyrimidin-7-yl)pyridin-3-yl)benzsulfamide]	–	–	–	–	inhibition at 0.25 µM (read-out: % inhibition AKT): -42%; inhibition at 0.25 µM (read-out: % inhibition p70s6k): 6.8%
COc1ncc(-c2ccc3ncc(Cl)c(=O)n3c2)cc1NS(=O)(=O)c1[nH]c(C)nc1C [compound 165]	–	–	–	–	inhibition at 0.25 µM (read-out: % inhibition AKT): 49.5%; inhibition at 0.25 µM (read-out: % inhibition p70s6k): 63.7%
COc1ncc(-c2ccc3ncc(OCC4CCOCC4)c(=O)n3c2)cc1NS(=O)(=O)c1sc(C)nc1C [compound 198]	≤ 50 nM	–	–	–	–
COc1ncc(-c2ccc3nccc(=O)n3c2)cc1NS(=O)(=O)C1CC1 [compound 9]	–	–	–	–	inhibition at 1 µM (read-out: % inhibition AKT): 76%; inhibition at 1 µM (read-out: % inhibition p70s6k): 38.4%
COc1ncc(-c2ccc3ncc(OC)c(=O)n3c2)cc1NS(=O)(=O)c1ccc(Cl)s1 [compound 108]	≤ 50 nM	–	–	≤ 50 nM	inhibition at 0.25 µM (read-out: % inhibition AKT): 92.4%; inhibition at 0.25 µM (read-out: % inhibition p70s6k): 82.5%
COc1ncc(-c2ccc3ncc(-n4ccc(C)n4)c(=O)n3c2)cc1NS(=O)(=O)c1ccccc1Cl [compound 220]	–	–	–	–	inhibition at 0.25 µM (read-out: % inhibition AKT): 51.2%; inhibition at 0.25 µM (read-out: % inhibition p70s6k): 11%
COc1ncc(-c2ccc3ncc(OCCOC4CC4)c(=O)n3c2)cc1NS(=O)(=O)c1sc(C)nc1C [compound 204]	≤ 50 nM	–	–	–	–
COc1ncc(-c2ccc3ncc(F)c(=O)n3c2)cc1NS(=O)(=O)c1cccc(F)c1 [compound 67]	≤ 50 nM	85.8%	89.7%	≤ 50 nM	–
COc1ncc(-c2cn3c(=O)ccnc3cc2C)cc1NS(=O)(=O)c1ccccc1F [compound 123]	–	-82.1%	6.7%	–	–
